Results: ChEMBL document CHEMBL2163339, “Discovery of potent inhibitors of human and mouse fatty acid amide hydrolases” (J Med Chem, 2012)
Active and inactive are the calls of the source.

Legend:
[1] = system: Rattus norvegicus; assay: Analgesic activity in rat assessed as increase in paw withdrawal threshold at 100 mg/kg, po; assay type: functional, organism-based; set-up: dose 100 mg/kg
[2] = system: Rattus norvegicus; assay: Analgesic activity in rat assessed as increase in paw withdrawal threshold at 30 mg/kg, po; assay type: functional, organism-based; set-up: dose 30 mg/kg
[3] = system: Mus musculus; assay: Anxiolytic activity in mouse at 30 mg/kg, po measured for 5 mins by elevated plus maze test; assay type: organism-based; set-up: dose 30 mg/kg, route oral; details: in vivo
[4] = system: Rattus norvegicus; assay: Analgesic activity in rat assessed as increase in paw withdrawal threshold at 10 mg/kg, po; assay type: functional, organism-based; set-up: dose 10 mg/kg
[5] = system: Mus musculus; assay: Anxiolytic activity in mouse at 10 mg/kg, po measured for 5 mins by elevated plus maze test; assay type: organism-based; set-up: dose 10 mg/kg, route oral; details: in vivo
[6] = system: Mus musculus; assay: Toxicity against CD1 mouse assessed as limbic/striatal stereotypies at 100 mg/kg, po at 240 mins by Irwin test; assay type: organism-based; set-up: dose 100 mg/kg, route oral; details: in vivo, 4 h
[7] = system: Mus musculus; assay: Anxiolytic activity in mouse at 3 mg/kg, po measured for 5 mins by elevated plus maze test; assay type: organism-based; set-up: dose 3 mg/kg, route oral; details: in vivo
[8] = system: Mus musculus; assay: Toxicity against CD1 mouse assessed as limbic/striatal stereotypies at 30 mg/kg, po at 240 mins by Irwin test; assay type: organism-based; set-up: dose 30 mg/kg, route oral; details: in vivo, 4 h
[9] = system: Mus musculus; assay: Toxicity against CD1 mouse assessed as limbic/striatal stereotypies at 10 mg/kg, po at 240 mins by Irwin test; assay type: organism-based; set-up: dose 10 mg/kg, route oral; details: in vivo, 4 h
[10] = system: Mus musculus; assay: Toxicity against CD1 mouse assessed as limbic/striatal stereotypies at 30 mg/kg, po at 60 mins by Irwin test; assay type: organism-based; set-up: dose 30 mg/kg, route oral; details: in vivo, 1 h
[11] = system: Mus musculus; assay: Toxicity against CD1 mouse assessed as limbic/striatal stereotypies at 100 mg/kg, po at 60 mins by Irwin test; assay type: organism-based; set-up: dose 100 mg/kg, route oral; details: in vivo, 1 h
[12] = system: Mus musculus; assay: Toxicity against CD1 mouse assessed as limbic/striatal stereotypies at 10 mg/kg, po at 60 mins by Irwin test; assay type: organism-based; set-up: dose 10 mg/kg, route oral; details: in vivo, 1 h
[13] = target: Voltage-gated inwardly rectifying potassium channel KCNH2 (Homo sapiens, UniProt Q12809); assay: Inhibition of human ERG expressed in CHOK1 cells for 5 mins by automated patch clamp assay; assay type: cell-based, CHO-K1
Sequence of Voltage-gated inwardly rectifying potassium channel KCNH2 (Q12809 whole entry): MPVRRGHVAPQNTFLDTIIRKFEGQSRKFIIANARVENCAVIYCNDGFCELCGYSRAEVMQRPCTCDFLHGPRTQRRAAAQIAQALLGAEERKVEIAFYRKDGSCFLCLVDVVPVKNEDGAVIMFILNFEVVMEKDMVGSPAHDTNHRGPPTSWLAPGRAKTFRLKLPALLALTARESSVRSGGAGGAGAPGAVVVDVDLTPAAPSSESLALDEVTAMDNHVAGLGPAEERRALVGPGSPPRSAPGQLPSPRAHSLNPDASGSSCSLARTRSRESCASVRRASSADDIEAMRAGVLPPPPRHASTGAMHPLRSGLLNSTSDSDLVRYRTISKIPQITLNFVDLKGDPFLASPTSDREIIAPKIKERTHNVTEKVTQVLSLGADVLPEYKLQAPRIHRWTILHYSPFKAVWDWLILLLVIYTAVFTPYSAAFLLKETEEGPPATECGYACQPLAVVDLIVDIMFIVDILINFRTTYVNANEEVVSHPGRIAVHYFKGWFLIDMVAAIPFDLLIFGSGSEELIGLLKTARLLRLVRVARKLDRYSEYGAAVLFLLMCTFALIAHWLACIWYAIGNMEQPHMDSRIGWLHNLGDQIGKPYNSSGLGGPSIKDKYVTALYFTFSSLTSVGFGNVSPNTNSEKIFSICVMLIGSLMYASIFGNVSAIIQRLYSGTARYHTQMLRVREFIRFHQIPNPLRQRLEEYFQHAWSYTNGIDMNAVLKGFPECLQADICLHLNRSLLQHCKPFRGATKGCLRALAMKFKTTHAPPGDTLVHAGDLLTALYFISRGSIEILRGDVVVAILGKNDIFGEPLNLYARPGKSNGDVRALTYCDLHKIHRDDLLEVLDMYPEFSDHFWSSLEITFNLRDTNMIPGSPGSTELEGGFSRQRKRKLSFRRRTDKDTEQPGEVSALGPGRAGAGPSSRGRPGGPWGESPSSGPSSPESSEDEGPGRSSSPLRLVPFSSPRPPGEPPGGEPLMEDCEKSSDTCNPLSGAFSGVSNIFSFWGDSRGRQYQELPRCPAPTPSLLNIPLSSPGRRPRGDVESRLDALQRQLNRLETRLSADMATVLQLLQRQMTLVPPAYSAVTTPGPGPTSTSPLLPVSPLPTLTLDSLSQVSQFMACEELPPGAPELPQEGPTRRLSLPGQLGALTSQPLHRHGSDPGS

[14] = target: T1, Monoglyceride lipase (Mus musculus) (UniProt O35678); assay: Inhibition of MAGL-mediated 2AG hydrolysis in mouse brain homogenate using [3H]2OG as substrate incubated for 20 mins prior to substrate addition; assay type: tissue-based
T1 sequence (whole entry): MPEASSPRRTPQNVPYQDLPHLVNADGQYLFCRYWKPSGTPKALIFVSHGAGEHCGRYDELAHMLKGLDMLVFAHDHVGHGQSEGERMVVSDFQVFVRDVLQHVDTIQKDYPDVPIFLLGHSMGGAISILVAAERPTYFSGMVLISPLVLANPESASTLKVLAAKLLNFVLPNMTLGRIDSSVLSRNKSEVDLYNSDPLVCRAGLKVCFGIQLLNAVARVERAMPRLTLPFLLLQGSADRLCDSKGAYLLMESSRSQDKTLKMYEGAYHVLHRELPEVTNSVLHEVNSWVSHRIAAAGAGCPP

[15] = species on record: Mus musculus; assay: Inhibition of DAGL-mediated 2AG synthesis in mouse brain homogenate using […] as substrate incubated for 20 mins prior to substrate addition; assay type: tissue-based
[16] = target: T2, N-acyl-phosphatidylethanolamine-hydrolyzing phospholipase D (Mus musculus) (UniProt Q8BH82); assay: Inhibition of NAPE-PLD-meidated AEA synthesis in mouse brain homogenate using [3H]NArPE as substrate incubated for 20 mins prior to substrate addition; assay type: tissue-based
T2 sequence (whole entry): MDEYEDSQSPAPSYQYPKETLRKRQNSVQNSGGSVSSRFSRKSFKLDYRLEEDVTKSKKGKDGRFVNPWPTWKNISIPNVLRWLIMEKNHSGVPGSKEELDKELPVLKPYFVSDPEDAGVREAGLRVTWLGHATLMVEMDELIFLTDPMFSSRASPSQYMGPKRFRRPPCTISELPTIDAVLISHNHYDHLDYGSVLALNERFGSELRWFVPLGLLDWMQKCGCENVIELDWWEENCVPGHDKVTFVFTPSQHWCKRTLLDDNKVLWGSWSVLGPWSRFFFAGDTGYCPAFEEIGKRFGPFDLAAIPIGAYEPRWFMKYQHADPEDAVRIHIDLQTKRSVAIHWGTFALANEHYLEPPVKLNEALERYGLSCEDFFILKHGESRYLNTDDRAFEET

[17] = target: Transient receptor potential cation channel subfamily V member 1 (Mus musculus) (UniProt Q704Y3); assay: Displacement of [3H]RTX from TRPV1 receptor in mouse brain fraction; assay type: tissue-based
Sequence of Transient receptor potential cation channel subfamily V member 1 (Mus musculus) (Q704Y3 whole entry): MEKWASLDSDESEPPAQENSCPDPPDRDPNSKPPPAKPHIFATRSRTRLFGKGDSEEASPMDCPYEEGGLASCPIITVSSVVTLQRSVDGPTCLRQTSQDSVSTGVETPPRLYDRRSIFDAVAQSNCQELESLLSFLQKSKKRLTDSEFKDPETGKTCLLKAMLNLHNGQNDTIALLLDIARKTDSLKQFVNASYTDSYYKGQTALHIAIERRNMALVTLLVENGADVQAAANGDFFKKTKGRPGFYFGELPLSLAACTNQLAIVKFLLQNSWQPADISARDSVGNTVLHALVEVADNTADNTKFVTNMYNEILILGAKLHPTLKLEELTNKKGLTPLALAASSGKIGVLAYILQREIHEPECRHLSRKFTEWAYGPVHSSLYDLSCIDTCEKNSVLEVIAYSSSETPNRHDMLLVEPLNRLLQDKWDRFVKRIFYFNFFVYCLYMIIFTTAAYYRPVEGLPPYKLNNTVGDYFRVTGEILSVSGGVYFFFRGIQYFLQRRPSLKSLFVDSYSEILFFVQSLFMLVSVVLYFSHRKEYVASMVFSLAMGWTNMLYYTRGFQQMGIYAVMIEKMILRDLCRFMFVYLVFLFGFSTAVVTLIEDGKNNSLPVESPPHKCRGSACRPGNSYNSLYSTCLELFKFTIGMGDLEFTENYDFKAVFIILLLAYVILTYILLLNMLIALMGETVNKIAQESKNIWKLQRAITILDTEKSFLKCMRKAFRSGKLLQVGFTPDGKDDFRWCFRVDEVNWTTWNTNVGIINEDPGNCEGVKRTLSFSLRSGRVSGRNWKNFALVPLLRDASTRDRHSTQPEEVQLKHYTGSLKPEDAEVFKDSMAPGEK

[18] = target: Cannabinoid receptor 2 (Mus musculus) (UniProt P47936); assay: Displacement of [3H]CP55.940 from CB2 receptor in mouse spleen fraction; assay type: tissue-based
Sequence of Cannabinoid receptor 2 (Mus musculus) (P47936 whole entry): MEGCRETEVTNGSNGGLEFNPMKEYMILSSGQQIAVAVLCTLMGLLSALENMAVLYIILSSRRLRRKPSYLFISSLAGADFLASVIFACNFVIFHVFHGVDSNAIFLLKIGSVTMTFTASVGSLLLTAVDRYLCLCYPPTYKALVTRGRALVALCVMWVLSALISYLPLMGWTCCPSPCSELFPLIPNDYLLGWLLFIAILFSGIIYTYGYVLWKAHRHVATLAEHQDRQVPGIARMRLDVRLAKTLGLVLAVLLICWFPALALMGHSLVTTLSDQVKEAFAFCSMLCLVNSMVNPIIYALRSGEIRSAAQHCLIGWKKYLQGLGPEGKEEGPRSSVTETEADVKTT

[19] = target: Cannabinoid receptor 1 (Mus musculus) (UniProt P47746); assay: Displacement of [3H]CP55.940 from CB1 receptor in mouse brain fraction; assay type: tissue-based
Sequence of Cannabinoid receptor 1 (Mus musculus) (P47746 whole entry): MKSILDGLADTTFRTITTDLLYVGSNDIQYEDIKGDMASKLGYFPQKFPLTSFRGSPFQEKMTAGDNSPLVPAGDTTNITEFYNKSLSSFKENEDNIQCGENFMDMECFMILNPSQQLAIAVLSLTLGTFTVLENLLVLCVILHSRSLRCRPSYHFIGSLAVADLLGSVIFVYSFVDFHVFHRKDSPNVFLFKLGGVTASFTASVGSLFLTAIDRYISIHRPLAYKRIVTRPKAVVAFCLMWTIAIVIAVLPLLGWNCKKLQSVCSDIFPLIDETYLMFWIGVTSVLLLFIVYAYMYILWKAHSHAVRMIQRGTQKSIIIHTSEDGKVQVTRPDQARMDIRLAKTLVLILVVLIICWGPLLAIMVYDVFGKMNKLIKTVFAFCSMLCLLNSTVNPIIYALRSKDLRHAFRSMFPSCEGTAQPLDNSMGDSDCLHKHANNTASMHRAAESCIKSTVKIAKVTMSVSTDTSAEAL

[20] = target: T3, Fatty-acid amide hydrolase 1 (Mus musculus) (UniProt O08914); assay: Non-competitive inhibition of mouse FAAH isolated from brain homogenate using [3H-ethanolamine]AEA as substrate by Lineweaver-Burk plot analysis
T3 sequence (whole entry): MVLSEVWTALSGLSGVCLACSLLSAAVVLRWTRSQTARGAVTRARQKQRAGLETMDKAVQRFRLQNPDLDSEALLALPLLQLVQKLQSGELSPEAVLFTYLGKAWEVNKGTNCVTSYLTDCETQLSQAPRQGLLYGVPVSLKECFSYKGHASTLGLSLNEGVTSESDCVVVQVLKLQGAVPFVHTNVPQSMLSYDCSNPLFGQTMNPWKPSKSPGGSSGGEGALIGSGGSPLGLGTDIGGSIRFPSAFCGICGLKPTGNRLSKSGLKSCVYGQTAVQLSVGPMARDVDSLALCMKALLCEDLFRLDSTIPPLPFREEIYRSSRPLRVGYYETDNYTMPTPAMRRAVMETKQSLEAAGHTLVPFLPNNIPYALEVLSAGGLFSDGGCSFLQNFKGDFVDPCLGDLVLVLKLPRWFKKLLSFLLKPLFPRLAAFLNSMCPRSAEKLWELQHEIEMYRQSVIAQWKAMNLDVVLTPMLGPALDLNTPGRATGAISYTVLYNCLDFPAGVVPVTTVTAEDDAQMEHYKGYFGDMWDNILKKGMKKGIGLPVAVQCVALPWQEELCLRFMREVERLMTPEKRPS

[21] = target: T3, Fatty-acid amide hydrolase 1 (Mus musculus); assay: Reversible inhibition of mouse FAAH isolated from brain homogenate using [3H-ethanolamine]AEA as substrate incubated for 20 mins prior to substrate addition measured after 18 hrs by […] method
[22] = target: T4, Fatty-acid amide hydrolase 1 (Mus musculus, UniProt O08914); assay: Inhibition of mouse FAAH isolated from brain homogenate using [3H-ethanolamine]AEA as substrate incubated for 20 mins prior to substrate addition measured after 15 mins by beta counting analysis
T4 sequence (O08914 whole entry): T3 sequence (whole entry)

[23] = target: T5, Fatty-acid amide hydrolase 1 (Homo sapiens, UniProt O00519); assay: Inhibition of human recombinant FAAH
T5 sequence (O00519 whole entry): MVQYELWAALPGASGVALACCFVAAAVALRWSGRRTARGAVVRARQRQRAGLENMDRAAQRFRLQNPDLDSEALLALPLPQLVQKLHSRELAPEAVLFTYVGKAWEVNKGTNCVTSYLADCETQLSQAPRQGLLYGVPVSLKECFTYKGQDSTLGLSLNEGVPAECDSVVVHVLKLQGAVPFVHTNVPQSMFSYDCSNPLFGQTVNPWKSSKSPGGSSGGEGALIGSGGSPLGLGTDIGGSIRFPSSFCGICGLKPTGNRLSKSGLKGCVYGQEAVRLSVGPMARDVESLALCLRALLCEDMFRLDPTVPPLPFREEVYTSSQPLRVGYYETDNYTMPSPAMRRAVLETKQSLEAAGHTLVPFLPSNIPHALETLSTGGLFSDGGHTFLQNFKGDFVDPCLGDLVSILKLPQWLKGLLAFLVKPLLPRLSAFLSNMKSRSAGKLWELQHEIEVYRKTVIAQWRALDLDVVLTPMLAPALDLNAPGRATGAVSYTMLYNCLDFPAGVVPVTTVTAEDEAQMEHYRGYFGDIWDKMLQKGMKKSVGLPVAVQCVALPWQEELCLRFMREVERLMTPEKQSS

[24] = system: Rattus norvegicus; assay: Analgesic activity in rat assessed as increase in paw withdrawal threshold at 50 mg/kg, po; assay type: functional, organism-based; set-up: dose 50 mg/kg

Row | Structure (SMILES) | Activity [1] | Activity [2] | Activity [3] | Activity [4] | Activity [5] | Activity [6] | Activity [7] | Activity [8] | Activity [9] | Activity [10] | Activity [11] | Activity [12] | inhibition [14] | inhibition [15] | inhibition [16] | Activity [17] | Activity [18] | Activity [19] | IC50 [22] | Ki [22] | other results
1 | NC(=O)c1ccn(-c2cccc(OC(=O)NCCCCCCc3ccccc3)c2)c1 | Active | Active | Non-toxic | inactive | Non-toxic | Toxic | Non-toxic | Toxic | Toxic | Toxic | Toxic | Toxic | inactive | inactive | inactive | inactive | inactive | inactive | 0.6 nM | 0.16 nM | IC50 [13]: > 10000 nM; inhibition [20]: Active; inhibition [21]: Active
2 | NC(=O)c1cccc(-c2cccc(OC(=O)NCCCCCCc3ccccc3)c2)c1 |  |  |  |  |  |  |  |  |  |  |  |  |  |  |  |  |  |  | 14 nM |  | IC50 [23]: 36 nM
3 | Cc1cc(C(N)=O)c(-c2cccc(OC(=O)NCCCCCCc3ccccc3)c2)o1 | Active | Active | Non-toxic | inactive | Non-toxic | Non-toxic | Non-toxic | Non-toxic | Non-toxic | Toxic | Toxic | Toxic | inactive | inactive | inactive | inactive | inactive | inactive | 1.7 nM | 0.49 nM | IC50 [13]: > 10000 nM; IC50 [23]: 102 nM
4 | NC(=O)c1cccc(-c2cccc(OC(=O)NC3CCCCC3)c2)c1 |  |  |  |  |  |  |  |  |  |  |  |  |  |  |  |  |  |  |  |  | Activity [24]: inactive
5 | Cc1cc(C(N)=O)c(-c2cccc(OC(=O)NCCCCCCc3ccccc3)c2)s1 |  |  |  |  |  |  |  |  |  |  |  |  | inactive | inactive | inactive | inactive | inactive | inactive | 1.9 nM | 0.5 nM | IC50 [13]: > 10000 nM; inhibition [20]: Active; inhibition [21]: Active
6 | C#CCCCCCCCCCNC(=O)Oc1cccc(-n2ccc(C(N)=O)c2)c1 | Active | Active | Non-toxic | inactive | Non-toxic | Non-toxic | Non-toxic | Non-toxic | Non-toxic | Toxic | Toxic | Toxic | inactive | inactive | inactive | inactive | inactive | inactive | 0.67 nM | 0.18 nM | 
